Source: patent US20240254119A1 (THIRD HARMONIC BIO, INC., priority 2022, published 2024)

tested on: not listed separately; experiment: Kinetic solubility assay; assay type: physicochemical; settings: kinetic solubility, 50 mM PB (pH 7.4), shaken 24 hours at RT
Summary of the method: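 Concentration in the filtrate was determined by UPLC-UV or HPLC-UV with a standard curve. Before that, compound (10 mM DMSO stock) in 50 mM PB at pH 7.4 was agitated 24 h at room temperature, then PTFE-filtered with centrifugation.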

Structure (SMILES)	Solubility (μM)
CC(C)(C)OC(=O)N1CC(c2nc(-c3ccc(Br)c(NC(=O)c4cnc5ccccn45)c3)no2)C1 [Compound I-332]	**** (a solubility less than or equal to 2 μM)
COC(=O)N1CC(c2nc(-c3ccc(Br)c(NC(=O)c4cnc5ccccn45)c3)no2)C1 [Compound I-338]	**** (a solubility less than or equal to 2 μM)
COC(=O)C1CC(c2nc(-c3ccc(C)c(NC(=O)c4cnc5ccccn45)c3)no2)C1 (stereo not shown) [Compound I-342]	*** (a solubility greater than 2 μM and less than or equal to 10 μM)
Cc1ccc(-c2noc(C3CC4(COCCO4)C3)n2)cc1NC(=O)c1cnc2ccccn12 (stereo not shown) [Compound I-343]	** (a solubility greater than 10 μM and less than or equal to 50 μM)
COC1(OC)CC(c2nc(-c3ccc(C)c(NC(=O)c4cnc5ccccn45)c3)no2)C1 [Compound I-346]	*** (a solubility greater than 2 μM and less than or equal to 10 μM)
Cc1ccc(-c2noc(C3CC(O)(c4ccccc4)C3)n2)cc1NC(=O)c1cnc2ccccn12 (stereo not shown) [Compound I-349]	**** (a solubility less than or equal to 2 μM)
COC1CC(c2nc(-c3ccc(C)c(NC(=O)c4cnc5ccccn45)c3)no2)C1 (stereo not shown) [Compound I-350]	** (a solubility greater than 10 μM and less than or equal to 50 μM)
CSCC1(c2nc(-c3ccc(C)c(NC(=O)c4cnc5ccccn45)c3)no2)CC(F)(F)C1 [Compound I-354]	**** (a solubility less than or equal to 2 μM)
Cc1ccc(-c2noc(C3(C(F)F)CC(F)(F)C3)n2)cc1NC(=O)c1cnc2ccccn12 [Compound I-355]	**** (a solubility less than or equal to 2 μM)
Cc1ccc(-c2noc(C3CC(O)(C4(O)CCC4)C3)n2)cc1NC(=O)c1cnc2ccccn12 (stereo not shown) [Compound I-357]	*** (a solubility greater than 2 μM and less than or equal to 10 μM)

target: T1, wtKIT (Homo sapiens, UniProt P10721); experiment: Caliper biochemical assay, wtKIT; settings: Table 6, read-out: KIT Biochemical IC50 avg
T1 construct: 1888289AM in the reaction mixtures
Description: Enzyme, substrate, and cofactors (ATP and Mn^2+) are combined in a well of a microtiter plate and incubated for 3 hours at 25° C. At the end of the incubation, the reaction is quenched by the addition of an EDTA-containing buffer. Substrate and product are separated electrophoretically using the microfluidic-based LabChip 3000 Drug Discovery System from Caliper Life Sciences* and quantitated by fluorescence intensity.
The substrate used in the CSF-1R and PDGFRα assay is FAM-[…]-CONH2 (FAM is carboxyfluorescein). Peptide should be >95% purity. The substrate for the KIT assay is FAM-[…]-NH2.
• 1. To a well of a 384-well plate add 5 μL of 2× enzyme buffer (or control) • 2. Add 100 nL of 100× compound. • 3. Add 5 μL of 2× substrate buffer. • 4. Incubate plate at 25° C. for 3 hours. • 5. Add 10 uL of […]. • 6. Read plate LabChip 3000 Drug Discovery System
• 3 hours at 25° C. where 100% Inhibitor: No enzyme.
• 100 mM HEPES, pH 7.5 0.1% BSA • 0.01% Triton X-100 • 1 mM DTT • 10 mM MnCl2 • 10 μM Sodium Orthovanadate • 10 μM Beta-Glycerophosphate • 400 μM ATP • 1% DMSO (from compound) • 1 μM FAM-[…]-CONH2 5.0 nM wtKIT Enzyme (1888289AM)* • *Specific activity may vary from lot to lot. Enzyme concentration may need to be adjusted to yield 10-20% conversion of substrate to product.

T1 sequence (P10721 26-976): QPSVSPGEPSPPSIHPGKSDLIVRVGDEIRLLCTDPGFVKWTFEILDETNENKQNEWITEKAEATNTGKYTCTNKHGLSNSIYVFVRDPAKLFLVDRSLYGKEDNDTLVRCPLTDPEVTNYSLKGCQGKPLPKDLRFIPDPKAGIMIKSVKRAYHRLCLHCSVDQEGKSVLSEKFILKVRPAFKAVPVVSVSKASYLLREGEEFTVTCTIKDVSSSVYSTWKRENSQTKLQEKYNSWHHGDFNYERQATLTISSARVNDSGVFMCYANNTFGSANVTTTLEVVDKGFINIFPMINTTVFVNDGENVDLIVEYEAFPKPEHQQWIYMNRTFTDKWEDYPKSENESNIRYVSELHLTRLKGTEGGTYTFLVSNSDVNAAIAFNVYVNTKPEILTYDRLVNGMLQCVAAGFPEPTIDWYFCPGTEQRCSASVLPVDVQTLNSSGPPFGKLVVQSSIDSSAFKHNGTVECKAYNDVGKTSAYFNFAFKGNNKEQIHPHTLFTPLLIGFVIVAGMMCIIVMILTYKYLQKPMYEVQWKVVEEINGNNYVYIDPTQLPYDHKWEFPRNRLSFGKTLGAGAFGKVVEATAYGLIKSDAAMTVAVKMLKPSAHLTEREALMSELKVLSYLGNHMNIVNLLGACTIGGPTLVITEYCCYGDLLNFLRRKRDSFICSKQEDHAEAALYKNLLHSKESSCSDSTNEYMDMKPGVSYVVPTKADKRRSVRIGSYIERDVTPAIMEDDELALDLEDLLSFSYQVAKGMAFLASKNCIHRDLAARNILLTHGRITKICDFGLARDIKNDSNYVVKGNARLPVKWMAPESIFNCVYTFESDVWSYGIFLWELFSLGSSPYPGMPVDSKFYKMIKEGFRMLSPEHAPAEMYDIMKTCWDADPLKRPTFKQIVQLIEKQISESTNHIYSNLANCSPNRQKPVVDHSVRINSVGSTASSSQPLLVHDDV

IC50 [nM]	Structure (SMILES)
≤ 50	COC(=O)N1CC(c2nc(-c3ccc(Br)c(NC(=O)c4cnc5ccccn45)c3)no2)C1 [Compound I-338]
≤ 50	COC(=O)C1CC(c2nc(-c3ccc(C)c(NC(=O)c4cnc5ccccn45)c3)no2)C1 (stereo not shown) [Compound I-342]
≤ 50	Cc1ccc(-c2noc(C3CC4(COCCO4)C3)n2)cc1NC(=O)c1cnc2ccccn12 (stereo not shown) [Compound I-343]
50 to 500	Cc1ccc(-c2noc(C3CC(O)(C4(O)CCC4)C3)n2)cc1NC(=O)c1cnc2ccccn12 (stereo not shown) [Compound I-357]

Continued, compound first:

Structure (SMILES)	IC50 [nM]
CC(C)(C)OC(=O)N1CC(c2nc(-c3ccc(Br)c(NC(=O)c4cnc5ccccn45)c3)no2)C1 [Compound I-332]	50 to 500
COC1(OC)CC(c2nc(-c3ccc(C)c(NC(=O)c4cnc5ccccn45)c3)no2)C1 [Compound I-346]	≤ 50
Cc1ccc(-c2noc(C3CC(O)(c4ccccc4)C3)n2)cc1NC(=O)c1cnc2ccccn12 (stereo not shown) [Compound I-349]	≤ 50
COC1CC(c2nc(-c3ccc(C)c(NC(=O)c4cnc5ccccn45)c3)no2)C1 (stereo not shown) [Compound I-350]	≤ 50
CSCC1(c2nc(-c3ccc(C)c(NC(=O)c4cnc5ccccn45)c3)no2)CC(F)(F)C1 [Compound I-354]	≤ 50
Cc1ccc(-c2noc(C3(C(F)F)CC(F)(F)C3)n2)cc1NC(=O)c1cnc2ccccn12 [Compound I-355]	≤ 50

target: T2, BCRP (BCRP-MDCKII monolayer) (Homo sapiens, UniProt Q9UNQ0); experiment: MDCKII-BCRP bidirectional transport assay; assay type: in vitro ADME; settings: not given
T2 construct: host or cells: MDCKII (canine kidney) cells
T2 sequence (Q9UNQ0 1-655): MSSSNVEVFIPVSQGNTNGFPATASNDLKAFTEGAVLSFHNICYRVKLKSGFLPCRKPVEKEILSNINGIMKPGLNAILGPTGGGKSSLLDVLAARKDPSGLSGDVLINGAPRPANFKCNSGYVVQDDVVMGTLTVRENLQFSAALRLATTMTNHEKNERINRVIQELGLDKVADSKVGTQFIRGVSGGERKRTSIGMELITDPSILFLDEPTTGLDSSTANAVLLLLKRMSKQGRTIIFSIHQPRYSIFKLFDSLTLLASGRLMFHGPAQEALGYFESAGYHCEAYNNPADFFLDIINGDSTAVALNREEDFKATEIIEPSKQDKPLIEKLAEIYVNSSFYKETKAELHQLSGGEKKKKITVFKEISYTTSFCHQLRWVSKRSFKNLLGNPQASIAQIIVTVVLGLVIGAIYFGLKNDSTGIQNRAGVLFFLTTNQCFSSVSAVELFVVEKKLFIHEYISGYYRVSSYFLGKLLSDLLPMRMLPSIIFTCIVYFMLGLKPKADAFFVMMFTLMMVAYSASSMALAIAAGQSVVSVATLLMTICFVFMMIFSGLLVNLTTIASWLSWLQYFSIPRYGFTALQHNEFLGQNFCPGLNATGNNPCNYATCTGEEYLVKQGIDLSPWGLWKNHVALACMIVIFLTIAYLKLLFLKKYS
Description: Exemplary compounds were tested for cell permeability in Caco-2, MDCKII-MDR1 and MDCKII-BCRP cell lines with efflux transporter engagement inferred from the efflux ratios determined. Procedures and results are described below. […] This feature of certain compounds is in part due to efflux transporter engagement. See, for instance, exemplary such compounds included in data tables below.
The reference compound Teriflunomide and test compounds are tested in the bidirectional assay. Test compound and reference compounds incubations were tested in duplicates.
The transport assay can be performed between days 12 to day 15 using ready to use PreadyPort™ BCRP-MDCKII monolayer in 96 well plate.
The medium was aspirated from the apical and basal compartments and 75 and 235 μL assay buffer was added to each of the 96 wells of apical and basal compartments of the PreadyPort™ plate.
The plates were pre-incubated for 15 min at 37° C. with 5% CO2 in humidified atmosphere. After preincubation the assay buffer was removed from the apical and basal inserts of the plate.
In apical to basolateral (A→B) transport, 75 μL of test or reference compound working solution to apical inserts and 235 μL of blank assay buffer were added to the corresponding basal compartments.
In basolateral to apical transport, 235 μL of test or reference compound working solution to the basal compartments and 75 μL of blank assay buffer solution were added to corresponding apical inserts.
The sandwich plate was incubated for 120 min in incubator at 5% CO2 and 37° C.
After incubation, 60 μL was transferred from receiver and donor compartments to collection plate.
For donor and C0 samples 20-fold dilution was accomplished by mixing 60 μL of collected sample with 1140 μL of transport buffer and from that solution aliquot 60 μL transfer Both receiver and donor samples were processed by adding […] of acetonitrile containing internal standard (60 μL of sample+240 μL of acetonitrile containing glyburide as internal standard, 125 ng/mL) and vortexing the samples. The compound concentration was measured in all samples using respective calibration standards by LC-MS/MS.
Calculate the Papp and recovery using the given formula:
[formula] [formula] • Where: dQ/dt=Permeability rate in μM/see • C0=Initial concentration in μM • A=Membrane surface area (0.33 cm^2) • V=Volume of receiver chamber • Cend, a=concentration in acceptor well at end of incubation • Cend, d=concentration in donor well at end of incubation • CHBSS=loading concentration measured in HBSS

MDCK-BCRP: Efflux Ratio	Structure (SMILES)
0.82	COC(=O)N1CC(c2nc(-c3ccc(Br)c(NC(=O)c4cnc5ccccn45)c3)no2)C1 [Compound I-338]
0.47	COC(=O)C1CC(c2nc(-c3ccc(C)c(NC(=O)c4cnc5ccccn45)c3)no2)C1 (stereo not shown) [Compound I-342]
2.36	Cc1ccc(-c2noc(C3CC4(COCCO4)C3)n2)cc1NC(=O)c1cnc2ccccn12 (stereo not shown) [Compound I-343]
63.9	Cc1ccc(-c2noc(C3CC(O)(C4(O)CCC4)C3)n2)cc1NC(=O)c1cnc2ccccn12 (stereo not shown) [Compound I-357]

The next lines start with the compound.

Structure (SMILES)	MDCK-BCRP: Efflux Ratio
CC(C)(C)OC(=O)N1CC(c2nc(-c3ccc(Br)c(NC(=O)c4cnc5ccccn45)c3)no2)C1 [Compound I-332]	1.75
COC1(OC)CC(c2nc(-c3ccc(C)c(NC(=O)c4cnc5ccccn45)c3)no2)C1 [Compound I-346]	1.33
Cc1ccc(-c2noc(C3CC(O)(c4ccccc4)C3)n2)cc1NC(=O)c1cnc2ccccn12 (stereo not shown) [Compound I-349]	2.56
COC1CC(c2nc(-c3ccc(C)c(NC(=O)c4cnc5ccccn45)c3)no2)C1 (stereo not shown) [Compound I-350]	1.52
CSCC1(c2nc(-c3ccc(C)c(NC(=O)c4cnc5ccccn45)c3)no2)CC(F)(F)C1 [Compound I-354]	1.03
Cc1ccc(-c2noc(C3(C(F)F)CC(F)(F)C3)n2)cc1NC(=O)c1cnc2ccccn12 [Compound I-355]	0.91

same assay, conditions: apical to basolateral

MDCK-BCRP: Papp A-B	Structure (SMILES)
23.1 10^−6 cm/s	COC(=O)N1CC(c2nc(-c3ccc(Br)c(NC(=O)c4cnc5ccccn45)c3)no2)C1 [Compound I-338]
30 10^−6 cm/s	COC(=O)C1CC(c2nc(-c3ccc(C)c(NC(=O)c4cnc5ccccn45)c3)no2)C1 (stereo not shown) [Compound I-342]
8.04 10^−6 cm/s	Cc1ccc(-c2noc(C3CC4(COCCO4)C3)n2)cc1NC(=O)c1cnc2ccccn12 (stereo not shown) [Compound I-343]
0.47 10^−6 cm/s	Cc1ccc(-c2noc(C3CC(O)(C4(O)CCC4)C3)n2)cc1NC(=O)c1cnc2ccccn12 (stereo not shown) [Compound I-357]

Further lines, the compound ahead of its results:

Structure (SMILES)	MDCK-BCRP: Papp A-B
CC(C)(C)OC(=O)N1CC(c2nc(-c3ccc(Br)c(NC(=O)c4cnc5ccccn45)c3)no2)C1 [Compound I-332]	2.63 10^−6 cm/s
COC1(OC)CC(c2nc(-c3ccc(C)c(NC(=O)c4cnc5ccccn45)c3)no2)C1 [Compound I-346]	40.1 10^−6 cm/s
Cc1ccc(-c2noc(C3CC(O)(c4ccccc4)C3)n2)cc1NC(=O)c1cnc2ccccn12 (stereo not shown) [Compound I-349]	16.6 10^−6 cm/s
COC1CC(c2nc(-c3ccc(C)c(NC(=O)c4cnc5ccccn45)c3)no2)C1 (stereo not shown) [Compound I-350]	8.86 10^−6 cm/s
CSCC1(c2nc(-c3ccc(C)c(NC(=O)c4cnc5ccccn45)c3)no2)CC(F)(F)C1 [Compound I-354]	7.97 10^−6 cm/s
Cc1ccc(-c2noc(C3(C(F)F)CC(F)(F)C3)n2)cc1NC(=O)c1cnc2ccccn12 [Compound I-355]	12.3 10^−6 cm/s
